Calls of active or inactive are those of the source.
Legend:
Streptococcus = experiment: Group A Streptococcus viability loss, dose response, counter-screen for streptokinase expression inhibitor project, luminescence, BacTiterGlo (AID 1915); assay type: functional, organism-based;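 note: potency for reduction of bacterial viability or growth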
X-box-binding protein 1 = X-box-binding protein 1 (Homo sapiens, UniProt P17861); assay type: functional, Cricetulus griseus;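 note: confirmatory dose-response counter-screen serving a CHOP assay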
[1] = growth suppression of PTEN-null colon cells, dose response, cell-based, HCT116 PTEN knockout (AID 1047); assay type: functional;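 note: HCT116 colon tumor cells with PTEN knocked out; cells exposed to compound for 60 hours before readout; potency for loss of cell viability measured by luminescence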
[2] = tested on: Streptococcus sp. 'group A'; experiment: growth inhibition of control SK(-) GAS strain, dose response, counter-screen for streptokinase expression inhibitor project, luminescence, kanamycin, BacTiterGlo, confirmation (AID 1900); assay type: functional, organism-based
[3] = growth suppression of beta-catenin-knockout colon cells, dose response, cell-based, HCT116, human colon tumor (AID 1045); assay type: functional;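 note: HCT116 colon tumor cells with beta catenin knocked out; cells exposed to compound for 60 hours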
Streptokinase A = biological target: T1, Streptokinase A (Streptococcus pyogenes serotype M1, UniProt P10520); experiment: S. pyogenes streptokinase expression inhibitors, potency, dose response, plasminogen activation absorbance, OD405 (AID 1914); assay type: functional, Streptococcus pyogenes M1 GAS;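 note: secreted streptokinase activity via plasminogen activation per viability signal from cell pellet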
T1 sequence (P10520 whole entry): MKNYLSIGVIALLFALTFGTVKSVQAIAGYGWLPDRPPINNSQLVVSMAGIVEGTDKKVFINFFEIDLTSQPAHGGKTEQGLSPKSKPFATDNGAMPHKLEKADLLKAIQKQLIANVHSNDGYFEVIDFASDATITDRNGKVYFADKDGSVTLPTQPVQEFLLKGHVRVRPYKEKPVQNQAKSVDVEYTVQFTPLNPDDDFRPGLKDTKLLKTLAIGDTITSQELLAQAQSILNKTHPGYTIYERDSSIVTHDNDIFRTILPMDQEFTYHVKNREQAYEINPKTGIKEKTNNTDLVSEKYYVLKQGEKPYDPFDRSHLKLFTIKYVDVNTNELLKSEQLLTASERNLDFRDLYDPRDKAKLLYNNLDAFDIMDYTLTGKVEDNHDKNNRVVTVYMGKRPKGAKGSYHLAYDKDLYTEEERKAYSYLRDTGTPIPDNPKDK

[4] = THP-1 cell cytotoxicity, dose response, cytotoxicity control for Vif-APOBEC3G degradation inhibitor project, THP-1 cells (AID 1117359); assay type: functional; conditions: Human immunodeficiency virus 1, THP-1
Estrogen receptor beta [5] = biological target: T2, Estrogen receptor beta (Homo sapiens, UniProt Q92731);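 note: recombinant ER-beta bound to coactivator SRC1 peptide in presence of estradiol agonist; inhibitors block coactivator peptide binding and lower the FRET signal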
Estrogen receptor beta [6] = biological target: T2, Estrogen receptor beta; experiment: ERβ–SRC-3 coactivator interaction inhibitors, confirmation, orthogonal assay, biochemical, ELISA, streptavidin-HRP readout (AID 1060)
Bcl-2-like protein 10 = Bcl-2-like protein 10 (Homo sapiens, UniProt Q9HD36); experiment: displacers of TR3 peptide from Bcl-B, primary screen, selectivity assay for Bfl-1 inhibitor project, biochemical, fluorescence polarization, FITC-TR3 peptide (AID 748);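 note: fluorescence polarization from a fluorescein-labelled TR3 peptide binding purified Bcl-B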
Tumor necrosis factor = Tumor necrosis factor (Homo sapiens, UniProt P01375); experiment: TNFa-triggered NF-kB activation inhibitors, SAR follow-up, cell-based, revised (AID 2337); assay type: functional
HEK293 [7] = experiment: cells; assay type: functional, cell-based; conditions: Homo sapiens
HEK293 [8] = experiment: NOD1 signaling inhibitors, primary screen, cell-based, luminescence, uHTS (AID 1578); assay type: functional; conditions: Homo sapiens
HEK293 [9] = experiment: NOD2 signaling inhibitors in MDP-stimulated cells, cell-based, uHTS, luminescence (AID 2001); assay type: functional; conditions: Homo sapiens
HEK293 [10] = experiment: cells; assay type: functional, cell-based; conditions: Homo sapiens; remark: listed apart in the source
[11] = biological target: T3, Nucleotide-binding oligomerization domain-containing protein 1 (Homo sapiens, UniProt Q9Y239); experiment: NOD1 signaling inhibitors, SAR follow-up, revised (AID 2333); assay type: functional
T3 sequence (Q9Y239 whole entry): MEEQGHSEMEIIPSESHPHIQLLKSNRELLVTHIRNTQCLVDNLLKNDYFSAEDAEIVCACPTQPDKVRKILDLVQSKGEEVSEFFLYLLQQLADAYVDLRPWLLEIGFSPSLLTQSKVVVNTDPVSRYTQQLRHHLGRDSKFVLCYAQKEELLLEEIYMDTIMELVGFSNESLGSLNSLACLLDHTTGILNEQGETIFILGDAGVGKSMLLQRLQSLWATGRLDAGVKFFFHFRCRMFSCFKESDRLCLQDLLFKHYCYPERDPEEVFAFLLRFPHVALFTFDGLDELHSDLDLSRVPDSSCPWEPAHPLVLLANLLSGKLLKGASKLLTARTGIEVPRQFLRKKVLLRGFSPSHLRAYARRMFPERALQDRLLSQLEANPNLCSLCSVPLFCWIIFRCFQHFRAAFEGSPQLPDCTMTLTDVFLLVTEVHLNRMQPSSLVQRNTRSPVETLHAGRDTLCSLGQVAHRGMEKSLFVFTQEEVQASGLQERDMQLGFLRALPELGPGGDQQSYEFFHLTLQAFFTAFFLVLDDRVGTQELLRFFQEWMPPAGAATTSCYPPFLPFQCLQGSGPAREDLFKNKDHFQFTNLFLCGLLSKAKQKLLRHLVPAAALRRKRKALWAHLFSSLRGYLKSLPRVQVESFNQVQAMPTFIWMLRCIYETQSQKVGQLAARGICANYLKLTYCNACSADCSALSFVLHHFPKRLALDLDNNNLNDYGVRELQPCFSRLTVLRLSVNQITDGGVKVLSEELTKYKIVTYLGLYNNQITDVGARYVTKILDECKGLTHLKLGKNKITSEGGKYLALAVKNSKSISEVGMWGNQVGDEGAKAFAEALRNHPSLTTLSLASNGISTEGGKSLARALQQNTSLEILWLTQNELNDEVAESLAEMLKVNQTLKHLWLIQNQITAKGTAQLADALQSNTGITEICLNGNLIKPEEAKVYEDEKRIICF

[12] = biological target: T4, Nucleotide-binding oligomerization domain-containing protein 2 (Homo sapiens, UniProt Q9HC29); experiment: PubChem AID 2334; assay type: functional
[13] = biological target: T5, Heat shock factor protein 1 (Mus musculus, UniProt P38532); experiment: HSF1 potentiators in luciferase reporter cells, confirmation, cell-based, NIH3T3, luminescence, dose retest (AID 435004); assay type: functional;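 note: stress induced by proteasome inhibitor MG132 added 30 min after compound; luciferase reporter driven by HSF1 response element in NIH3T3 cells; actives raise luminescence as potentiators of the MG132 stress response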
T5 sequence (P38532 whole entry): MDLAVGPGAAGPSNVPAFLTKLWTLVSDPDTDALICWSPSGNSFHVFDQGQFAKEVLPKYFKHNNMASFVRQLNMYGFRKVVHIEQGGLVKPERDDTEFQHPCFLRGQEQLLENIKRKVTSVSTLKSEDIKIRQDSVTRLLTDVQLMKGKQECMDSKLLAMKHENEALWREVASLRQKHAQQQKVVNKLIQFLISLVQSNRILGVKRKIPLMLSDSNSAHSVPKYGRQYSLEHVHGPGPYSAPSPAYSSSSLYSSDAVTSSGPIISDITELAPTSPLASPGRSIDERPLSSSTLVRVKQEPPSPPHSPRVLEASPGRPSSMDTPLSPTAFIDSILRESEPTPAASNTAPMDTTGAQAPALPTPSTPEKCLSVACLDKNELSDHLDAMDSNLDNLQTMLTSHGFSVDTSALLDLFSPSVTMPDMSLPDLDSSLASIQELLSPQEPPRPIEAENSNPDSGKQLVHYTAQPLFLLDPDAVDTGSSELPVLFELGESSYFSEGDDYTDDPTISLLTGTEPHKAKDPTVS

[14] = biological target: T6, Corticotropin-releasing factor receptor 2/Corticotropin-releasing factor-binding protein (Homo sapiens, UniProt P24387+Q13324); experiment: Dose Response confirmation of uHTS hits for small molecule antagonists of the CRF-binding protein and CRF-R2 receptor complex.; assay type: functional; conditions: read-out: IC50_Mean
T6 sequence (Q13324 whole entry): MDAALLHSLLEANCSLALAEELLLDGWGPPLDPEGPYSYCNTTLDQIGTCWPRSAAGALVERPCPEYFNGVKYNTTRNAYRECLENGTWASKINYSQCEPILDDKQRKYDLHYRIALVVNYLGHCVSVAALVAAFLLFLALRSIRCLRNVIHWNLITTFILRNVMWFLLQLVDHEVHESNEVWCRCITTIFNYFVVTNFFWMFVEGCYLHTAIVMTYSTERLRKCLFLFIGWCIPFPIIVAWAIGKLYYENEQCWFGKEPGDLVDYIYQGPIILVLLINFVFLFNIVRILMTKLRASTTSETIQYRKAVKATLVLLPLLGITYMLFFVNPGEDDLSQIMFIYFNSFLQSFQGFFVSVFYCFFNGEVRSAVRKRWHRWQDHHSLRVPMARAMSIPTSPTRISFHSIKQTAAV
T6 sequence (P24387 whole entry): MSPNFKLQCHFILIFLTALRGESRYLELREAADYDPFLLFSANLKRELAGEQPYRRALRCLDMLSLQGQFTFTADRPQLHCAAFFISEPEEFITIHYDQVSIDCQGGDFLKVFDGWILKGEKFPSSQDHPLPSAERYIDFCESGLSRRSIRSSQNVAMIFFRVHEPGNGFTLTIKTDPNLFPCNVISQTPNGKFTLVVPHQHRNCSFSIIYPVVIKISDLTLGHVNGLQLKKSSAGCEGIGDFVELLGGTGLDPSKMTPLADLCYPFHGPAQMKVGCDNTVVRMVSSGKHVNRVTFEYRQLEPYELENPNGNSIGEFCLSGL

[15] = biological target: T4, Nucleotide-binding oligomerization domain-containing protein 2; experiment: NOD2 signaling inhibitors, cell-based, luminescence, uHTS, HEK293 (AID 1566); assay type: functional
[16] = biological target: T6, Corticotropin-releasing factor receptor 2/Corticotropin-releasing factor-binding protein; experiment: activators of CRF receptor 2 with binding protein – uHTS hits, confirmation (AID 602473); assay type: functional; conditions: read-out: EC50_Mean
HEK293 [17] = experiment: cells; assay type: functional, cell-based; conditions: Homo sapiens; remark: listed apart in the source
HEK293 [18] = experiment: cells; conditions: Homo sapiens
[19] = HepG2 cell cytotoxicity, dose response, cytotoxicity control for non-replicating M. tuberculosis project (AID 489018); assay type: functional; conditions: Mycobacterium tuberculosis
[20] = Vero E6 cell cytotoxicity, dose response, cytotoxicity control for non-replicating M. tuberculosis project, secondary assay (AID 492998); assay type: functional, VeroE6; conditions: Vero C1008
cells = assay type: functional

Sequence of Tumor necrosis factor (P01375 whole entry): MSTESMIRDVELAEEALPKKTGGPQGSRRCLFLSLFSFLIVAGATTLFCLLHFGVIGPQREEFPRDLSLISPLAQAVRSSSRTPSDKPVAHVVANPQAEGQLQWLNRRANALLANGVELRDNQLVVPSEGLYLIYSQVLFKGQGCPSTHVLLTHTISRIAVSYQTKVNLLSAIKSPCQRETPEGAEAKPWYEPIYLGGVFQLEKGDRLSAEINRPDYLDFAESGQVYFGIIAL
T4 sequence (Q9HC29 whole entry, the tested form may be a part): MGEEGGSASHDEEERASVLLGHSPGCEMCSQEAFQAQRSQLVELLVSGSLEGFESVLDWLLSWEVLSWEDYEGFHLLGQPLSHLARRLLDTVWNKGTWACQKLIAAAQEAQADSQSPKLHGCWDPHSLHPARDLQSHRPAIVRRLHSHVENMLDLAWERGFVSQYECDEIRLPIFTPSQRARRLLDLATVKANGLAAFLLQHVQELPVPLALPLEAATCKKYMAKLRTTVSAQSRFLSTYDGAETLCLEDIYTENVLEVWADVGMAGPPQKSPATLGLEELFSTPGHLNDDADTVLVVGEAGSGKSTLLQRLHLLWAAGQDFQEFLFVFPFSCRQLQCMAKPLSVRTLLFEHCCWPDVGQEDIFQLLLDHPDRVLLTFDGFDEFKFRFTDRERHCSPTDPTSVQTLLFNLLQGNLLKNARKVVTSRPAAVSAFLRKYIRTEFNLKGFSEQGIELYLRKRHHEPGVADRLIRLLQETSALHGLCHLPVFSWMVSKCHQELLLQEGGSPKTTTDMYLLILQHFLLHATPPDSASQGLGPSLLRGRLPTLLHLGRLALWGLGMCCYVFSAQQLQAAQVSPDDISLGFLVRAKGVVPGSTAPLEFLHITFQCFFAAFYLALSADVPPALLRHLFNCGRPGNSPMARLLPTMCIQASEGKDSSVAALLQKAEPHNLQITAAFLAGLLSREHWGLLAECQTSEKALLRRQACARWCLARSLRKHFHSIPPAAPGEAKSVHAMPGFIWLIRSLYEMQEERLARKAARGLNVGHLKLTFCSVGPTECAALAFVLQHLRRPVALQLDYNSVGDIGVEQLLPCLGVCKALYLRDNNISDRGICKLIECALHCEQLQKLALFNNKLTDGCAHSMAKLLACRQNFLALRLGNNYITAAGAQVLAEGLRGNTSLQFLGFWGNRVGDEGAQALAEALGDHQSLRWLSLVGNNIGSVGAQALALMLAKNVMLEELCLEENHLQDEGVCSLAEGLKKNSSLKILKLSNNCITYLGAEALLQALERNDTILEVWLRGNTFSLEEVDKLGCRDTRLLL
T2 sequence (Q92731 whole entry): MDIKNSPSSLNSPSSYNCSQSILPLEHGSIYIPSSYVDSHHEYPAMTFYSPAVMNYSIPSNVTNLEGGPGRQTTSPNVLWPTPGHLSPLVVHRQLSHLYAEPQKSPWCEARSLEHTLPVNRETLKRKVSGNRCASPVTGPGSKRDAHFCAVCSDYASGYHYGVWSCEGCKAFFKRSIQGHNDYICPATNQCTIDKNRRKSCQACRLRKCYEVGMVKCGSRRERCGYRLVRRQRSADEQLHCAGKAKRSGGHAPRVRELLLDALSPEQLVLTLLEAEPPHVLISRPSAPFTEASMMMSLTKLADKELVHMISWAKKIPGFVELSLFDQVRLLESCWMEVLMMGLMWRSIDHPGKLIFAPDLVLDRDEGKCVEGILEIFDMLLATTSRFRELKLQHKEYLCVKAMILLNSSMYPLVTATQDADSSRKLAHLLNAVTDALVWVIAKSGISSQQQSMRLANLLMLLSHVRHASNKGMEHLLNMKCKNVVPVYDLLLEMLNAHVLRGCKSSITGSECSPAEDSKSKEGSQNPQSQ
Sequence of X-box-binding protein 1 (P17861 whole entry): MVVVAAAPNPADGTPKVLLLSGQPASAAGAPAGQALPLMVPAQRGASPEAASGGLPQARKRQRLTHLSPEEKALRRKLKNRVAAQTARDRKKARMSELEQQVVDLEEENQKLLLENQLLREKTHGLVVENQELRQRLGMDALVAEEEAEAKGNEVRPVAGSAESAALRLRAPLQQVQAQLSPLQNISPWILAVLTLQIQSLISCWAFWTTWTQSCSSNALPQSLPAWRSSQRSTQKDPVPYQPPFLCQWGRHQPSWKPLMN
Sequence of Bcl-2-like protein 10 (Q9HD36 whole entry): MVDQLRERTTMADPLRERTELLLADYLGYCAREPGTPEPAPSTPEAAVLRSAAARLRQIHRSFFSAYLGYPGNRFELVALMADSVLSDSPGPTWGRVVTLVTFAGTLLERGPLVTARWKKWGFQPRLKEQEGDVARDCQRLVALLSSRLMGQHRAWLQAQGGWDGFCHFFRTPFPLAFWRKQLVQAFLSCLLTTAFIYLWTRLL

SMILES: Oc1[nH]c2ccccc2c1N=NC(S)=NCCc1ccccc1
- EC50 (Streptococcus): 10.9 µM (active)
- Absolute IC50 (XBP1) (X-box-binding protein 1): 10 µM
- EC50 [1]: 24 µM (active)
- EC50 [2]: 4.7 µM (active)
- EC50 [3]: 23 µM (active)
- EC50 (Streptokinase A): > 150 µM (not active)

SMILES: O=C(CSc1ccc(Cl)cc1)c1ccco1
- CC50 [4]: > 40 µM (active)
- IC50 (Estrogen receptor beta [5]): < 1.56 µM (active)
- IC50 (Estrogen receptor beta [6]): 17.9 µM (not active)
- IC50 (Bcl-2-like protein 10): 25.5 µM (active)

SMILES: O=C(NC(=S)N1CCN(c2ccc(F)cc2)CC1)c1cccs1
- IC50 (Tumor necrosis factor): > 20 µM (inactive)
- IC50 (HEK293 [7]): > 20 µM (inactive)
- EC50 (HEK293 [8]): > 20 µM (inactive)
- IC50 (HEK293 [9]): 10 µM (inactive)
- IC50 (HEK293 [10]): > 20 µM (inactive)
- IC50 [11]: 19.4 µM (active)
- IC50 [12]: > 20 µM (inactive)
- EC50 [13]: > 260 µM (inactive)
- IC50 [14]: > 47.1 µM (inactive)
- EC50 [15]: > 20 µM (inactive)
- EC50 [16]: > 53 µM (inactive)
- IC50 (HEK293 [17]): > 20 µM (inactive)
- IC50 (HEK293 [18]): > 20 µM (inactive)

SMILES: COc1ccc(CCNc2nc(-c3ccccn3)cs2)cc1OC
- EC50 (Streptococcus): > 150 µM (not active)
- CC50 [19]: > 20 µM (active)
- EC50 [2]: 14.3 µM (active)
- CC50 [20]: 14.7 µM (active)
- IC50 (cells): 1.14 µM (active)
- EC50 (Streptokinase A): > 150 µM (not active)

SMILES: O=C(C1CC1)N1CCc2cc(S(=O)(=O)N3CCN(c4ccc(Cl)cc4)CC3)ccc21
- IC50 (Tumor necrosis factor): > 20 µM (inactive)
- IC50 [11]: > 20 µM (inactive)
- IC50 [12]: > 20 µM (inactive)
- IC50 (HEK293 [18]): > 20 µM (inactive)

From ChEMBL document CHEMBL1201862, “PubChem BioAssay data set” (2004)
